From publication PMC8279417 (Journal of Medicinal Chemistry, 2021)
Where two headings read alike, the source gives them in different places.

Assays:
ERβ [1] = target: T1, ERβ (Homo sapiens, UniProt Q92731); assay: Luciferase reporter gene assay (transactivation), U2OS cells transfected with pSG5-ERβ; type: cell-based; conditions: inhibition of E2-induced (0.3 nM) transactivation
Target sequence in this assay (Q92731 whole entry): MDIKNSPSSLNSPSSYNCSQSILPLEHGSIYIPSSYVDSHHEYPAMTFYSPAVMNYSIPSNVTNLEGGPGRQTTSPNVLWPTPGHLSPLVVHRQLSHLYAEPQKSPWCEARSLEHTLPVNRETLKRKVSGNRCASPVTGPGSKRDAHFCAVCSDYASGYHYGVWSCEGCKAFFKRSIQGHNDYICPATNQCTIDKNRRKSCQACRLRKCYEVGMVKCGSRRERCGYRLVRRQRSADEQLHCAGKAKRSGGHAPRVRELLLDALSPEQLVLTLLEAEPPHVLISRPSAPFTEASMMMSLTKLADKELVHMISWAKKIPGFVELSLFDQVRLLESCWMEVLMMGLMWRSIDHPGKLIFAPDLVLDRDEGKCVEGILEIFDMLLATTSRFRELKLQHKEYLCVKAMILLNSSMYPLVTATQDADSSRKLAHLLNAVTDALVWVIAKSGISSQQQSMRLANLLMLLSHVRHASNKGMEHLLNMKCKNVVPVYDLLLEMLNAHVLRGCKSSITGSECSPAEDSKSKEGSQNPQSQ

MCF-7TamR cells = assay: Crystal violet assay, MCF-7TamR cells; type: cell-based
ERα [2] = target: T2, ERα (Homo sapiens, UniProt P03372); assay: Luciferase reporter gene assay (transactivation), U2OS cells transfected with pSG5-ERα; type: cell-based; conditions: inhibition of E2-induced (0.03 nM) transactivation
T2 sequence (P03372 1-595): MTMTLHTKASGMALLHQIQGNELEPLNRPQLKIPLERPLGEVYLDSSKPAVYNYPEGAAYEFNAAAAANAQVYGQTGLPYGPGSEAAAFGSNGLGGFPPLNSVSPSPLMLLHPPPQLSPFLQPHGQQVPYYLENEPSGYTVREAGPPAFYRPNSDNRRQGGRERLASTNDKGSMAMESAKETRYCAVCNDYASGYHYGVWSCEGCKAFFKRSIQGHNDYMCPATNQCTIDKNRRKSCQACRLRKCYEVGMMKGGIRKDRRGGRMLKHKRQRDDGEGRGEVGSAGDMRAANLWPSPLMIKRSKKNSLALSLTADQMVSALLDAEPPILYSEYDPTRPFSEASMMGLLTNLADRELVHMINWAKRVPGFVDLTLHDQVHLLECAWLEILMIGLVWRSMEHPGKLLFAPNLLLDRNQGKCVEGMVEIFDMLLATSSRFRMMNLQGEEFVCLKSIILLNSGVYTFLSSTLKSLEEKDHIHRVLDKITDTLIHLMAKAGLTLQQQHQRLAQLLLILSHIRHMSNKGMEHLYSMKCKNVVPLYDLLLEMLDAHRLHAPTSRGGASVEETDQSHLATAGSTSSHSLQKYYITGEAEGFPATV

ERα [3] = target: T3, ERα (Homo sapiens, UniProt P03372); conditions: for IC50: read-out: TR-FRET ERα IC50, displacement of fluorescent-labeled E2 from the LBD of ERα; for RBA ERα: relative binding affinity compared to E2 (100%)
T3 sequence (P03372 311-547 limits assumed): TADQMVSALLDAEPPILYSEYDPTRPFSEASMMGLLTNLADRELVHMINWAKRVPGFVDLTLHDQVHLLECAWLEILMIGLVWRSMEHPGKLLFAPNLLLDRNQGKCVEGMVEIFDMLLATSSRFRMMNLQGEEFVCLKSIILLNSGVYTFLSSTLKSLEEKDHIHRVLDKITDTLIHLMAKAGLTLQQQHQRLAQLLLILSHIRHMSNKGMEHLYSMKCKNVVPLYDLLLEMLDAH
Procedure: (§1) LanthaScreen TR-FRET ER alpha/beta competitive binding assays (Invitrogen, Carlsbad) were used to investigate the binding affinity to the isolated receptors according to the manufacturer′s protocols. Measurement was performed with an Enspire multimode plate reader (PerkinElmer Life Sciences, Waltham). Calculations were performed with Excel (Microsoft, Redmond) and GraphPad Prism (GraphPad Software, San Diego).

MDA-MB-231 cells = assay: Crystal violet assay, MDA-MB-231 cells; type: cell-based
MCF-7 cells = assay: Cellular uptake into MCF-7 cells (fluorometry, related to protein content); type: in vitro ADME; conditions: 10 μM, after 4 h (saturation), nmol compound/mg protein
Procedure: (§2) The compounds were incubated at a concentration of 10 μM with either MCF-7 or COS-7 cells, and the intracellular amount, determined by fluorometry, was related to the protein content.[42]
(§3) The determination of the cellular uptake in MCF-7 and COS-7 cells was performed as already described.[24] Measurement was conducted with the Enspire multimode plate reader.

COS-7 cells = assay: Cellular uptake into COS-7 cells (fluorometry, related to protein content); type: in vitro ADME, African green monkey; conditions: 10 μM, after 4 h, nmol compound/mg protein
Procedure: as §2, §3

ERβ [4] = target: T1, ERβ; conditions: for IC50: read-out: TR-FRET ERβ IC50, displacement of fluorescent-labeled E2 from the LBD of ERβ; for RBA ERβ: relative binding affinity compared to E2 (100%)
Target sequence in this assay (Q92731 264-498 limits assumed): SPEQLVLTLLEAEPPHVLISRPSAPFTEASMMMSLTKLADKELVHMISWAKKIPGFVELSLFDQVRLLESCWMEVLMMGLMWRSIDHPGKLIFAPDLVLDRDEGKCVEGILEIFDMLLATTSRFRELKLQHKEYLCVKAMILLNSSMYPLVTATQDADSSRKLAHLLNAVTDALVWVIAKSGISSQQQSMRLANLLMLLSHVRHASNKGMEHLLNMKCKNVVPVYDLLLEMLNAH
Procedure: as §1

ERα [5] = target: T2, ERα; assay: In-Cell Western immunoassay, ERα levels in MCF-7 cells; type: cell-based; conditions: for Emax at 1 µM: MCF7, read-out: % efficacy [1 μM], downregulation of ERα compared to fulvestrant (100%), MCF-7, 1 μM
Procedure: Degradation was evaluated with the CellTagTM 700 In-Cell Western kit (LI-COR, Lincoln) according to the manufacturer’s protocol. MCF-7 cells were treated, and calculation was performed as previously described.[24]

[6] = 0.5 mM, methanol/2× PBS (75:25), 37 °C, 72 h
Source text: For the interpretation of the biological results, it is necessary to obtain information about the isomerization by simulating physiological conditions.

CCC(=C(c1ccc(O)cc1)c1ccc(/C=C/C(=O)NCCCNC(=O)CCCn2c(=S)[nH]c3ccccc3c2=O)cc1)c1ccccc1 (mixture of isomers) [Compound 15]
IC50 (ERβ [1]): 4.1 ± 0.6 nM
T/Ccorr MCF-7TamR (MCF-7TamR cells): about 40%
IC50 (ERα [2]): 30.2 ± 14.3 nM
IC50 (ERα [3]): 4.01 ± 1.9 nM
RBA ERα (ERα [3]): 8.2%
T/Ccorr MDA-MB-231 (MDA-MB-231 cells): 20%
cellular uptake, MCF-7 cells (MCF-7 cells): 2.8 nmol/mg
cellular uptake, COS-7 cells (COS-7 cells): 1.6 nmol/mg
IC50 (ERβ [4]): 12.6 ± 4.8 nM
RBA ERβ (ERβ [4]): 5.9%
Emax at 1 µM (ERα [5]): 60%

CCC(=C(c1ccc(O)cc1)c1ccc(/C=C/C(=O)NCCCNC(=O)c2ccc(N3CCN(C(=O)CCCn4c(=S)[nH]c5ccccc5c4=O)CC3)cc2)cc1)c1ccccc1 (mixture of isomers) [Compound 17]
IC50 (ERβ [1]): 48 ± 12 nM
T/Ccorr MCF-7TamR (MCF-7TamR cells): about 40%
IC50 (ERα [2]): 104 ± 14 nM
IC50 (ERα [3]): 4.63 ± 1.74 nM
RBA ERα (ERα [3]): 7.1%
amount of the E isomer [6]: 25%
IC50 (ERβ [4]): 18.5 ± 4.8 nM
RBA ERβ (ERβ [4]): 4%
Emax at 1 µM (ERα [5]): 94.5%
% ERα remaining [1 μM] (ERα [5]; MCF-7 cells, 24 h, 1 μM, compared to the solvent control (DMSO)): 5.5 ± 5.0%
% efficacy [1 μM] (ERα [5]; downregulation of ERα compared to fulvestrant (100%), MCF-7, 1 μM): 95%
